Data on one compound can be found in article PMC8232704, “Hydrophobic Tagging-Mediated Degradation of Transcription Coactivator SRC-1” (International Journal of Molecular Sciences, 2021).

The nature of series [1]: Serum stability in FBS. The series is classed as in vitro ADME, bovine. The conditions noted are these: 40 μM in DPBS containing 25% FBS, 37 °C, 0–24 h, LC–MS, normalized to control without FBS. The protocol:
YL2-HyT6 and ND1-YL2 solutions (200 μL, 40 μM in DPBS containing 25% FBS) were incubated at 37 °C for different time periods (0–24 h). For the precipitation of serum proteins, each sample was treated with 100 μL of 15% TFA and incubated at 4 °C overnight. Final samples were then centrifuged at 15,000 rpm for 10 min and filtrated for analysis using LC–MS with a C18 column. The ratio of the remaining compound (%) was calculated by integrating the chromatographic peak of a compound and normalized in comparison with a control sample (incubated without FBS).

Series [2] has as its target T1, PAS-B domain of human SRC-1 (residues 257–385) (Homo sapiens, UniProt Q15788).
T1 construct: PAS-B domain of human SRC-1 (residues 257–385); His6; made in house; host or cells: Rosetta E. coli
T1 sequence (Q15788 257-385): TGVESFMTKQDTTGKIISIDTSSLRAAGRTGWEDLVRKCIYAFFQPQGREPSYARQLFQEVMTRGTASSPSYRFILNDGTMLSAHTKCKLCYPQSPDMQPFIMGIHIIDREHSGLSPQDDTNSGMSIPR
Description: Competitive fluorescence polarization (FP) assay, fluorescein-labeled STAT-6 peptide binding to SRC-1. The conditions noted are these: 100 nM fluorescein-labeled 15-mer STAT-6 peptide, 1 μM PAS-B domain of SRC-1, HEPES pH 7.4, SD from three independent experiments. On the procedure: A plasmid expressing the PAS-B domain of human SRC-1 (residues 257–385) tagged with His6 was provided by John A. Robinson (University of Zürich at Switzerland). It was transformed into Rosetta E. coli cells. SRC-1 protein purification was performed as described previously.
After incubating 100 nM of fluorescein-labeled 15-mer STAT-6 peptide with 1 μM of PAS-B domain of SRC-1 in a binding buffer (50 mM HEPES pH 7.4, 150 mM NaCl, 3.4 mM EDTA, and 0.01% Tween 20) in a black Greiner 384-well plate for 30 min, indicated concentrations of YL2 and YL2-HyT1 through YL2-HyT6 were added to each well. After incubation for another 1.5 h, fluorescence polarization was measured on a Tecan Infinite F200 Pro microplate reader (excitation wavelength: 485 nm, emission wavelength: 535 nm). The Ki values of the compounds in the competition assay were determined using the following equation [43]. (1) Ki=[I]50/[L]50/KD+[P]0/KD+1 where [I]50 is the concentration of the free inhibitor at 50% inhibition, KD is the dissociation constant of the protein–ligand complex, [L]50 is the concentration of the free labeled ligand at 50% inhibition, and [P]0 is the concentration of the free protein at 0% inhibition.

In series [3] the test system is MDA-MB-231 cells. Description: Matrigel transwell invasion assay. The series is classed as cell-based, human. The note with it: Matrigel chambers, 24 h. The protocol: Matrigel invasion chambers (Corning 354480) were placed in 24-well plates and rehydrated with FBS-free DMEM medium at 37 °C in a CO2 incubator for 2 h. After removing the medium, 4 × 10^4 cells of MDA-MB-231 were seeded into Matrigel invasion chambers and control chambers (Corning, 354578) with 125 µL of Opti-MEM medium. Then another 125 µL of each compound (YL2, adamantane, ND1-YL2, or YL2-HyT6) in Opti-MEM medium was added to each chamber. The bottom of the well was filled with 500 µL of DMEM medium containing 10% FBS 1% PS. The chambers were then incubated at 37 °C with 5% CO2 for 24 h. After removing the medium, the chambers were washed with cold PBS. Then noninvading cells on the upper surface of the membrane were removed by scrubbing with a cotton swab. Cells on the bottom side of the membrane were fixed with 500 µL of 4% formaldehyde for 10 min at rt. After washing with PBS, the bottom side of the chamber was stained with 500 µL of Hoechst 33342 (5 µg/mL) for 5 min at 37 °C in the CO2 incubator. […] The percent invasion (% invasion) of each sample was determined with the following equation:(3) % Invasion=Mean # of cells invading through Matrigel chamber membrane/Mean # of cells migrating through control chamber membrane×100

In series [4] the test system is HEK293T cells. Description: Cell viability assay (Cyto X). It is filed as cell-based, human. The note with it: 48 h, Opti-MEM. The protocol:
(§1) MDA-MB-231 (1 × 10^4 cells/well) and HEK293T (1 × 10^4 cells/well) cells were seeded into a 96-well plate (Corning, 3595) and incubated at 37 °C with 5% CO2 for 24 h. These cells were then washed twice with DPBS and treated with 1% DMSO or various concentrations of YL2-HyT6 for 48 h in Opti-MEM medium. The remaining cells were then used to measure cell viability using a Cyto X cell viability assay kit (LPS solution, Daejeon, Korea, CYT3000) following the manufacturer’s instruction.

The subject of series [5] is MDA-MB-231 cells. Briefly: Cell viability assay (Cyto X). The conditions noted are these: 48 h, Opti-MEM. The series is classed as cell-based, human. The protocol:
as §1

Series [6] in a line: Circular dichroism (CD), calculated helicity. The note with it: 50 μM peptide in 30% PBS (pH 7.4) and 70% acetonitrile, calculated from CD spectra. It is filed as physicochemical. The protocol: Lyophilized compounds (YL2 and YL2-HyT1 through YL2-HyT6) were dissolved in 30% PBS (pH 7.4) and 70% acetonitrile solution to a final concentration of 50 μM. CD spectra were measured with a Jasco J-815 CD spectropolarimeter using a quartz cuvette (2 mm path length). These spectra were averages of five successive accumulations with a scan rate of 100 nm/min. Raw data were converted in terms of per-residue molar ellipticity (deg·cm^2·dmol^−1·residue^−1) as calculated per mole of amide groups present and normalized by the molar concentration of peptides. Smoothing and correction of background spectra were performed with Origin Pro 8.0 (OriginLab Corporation, Northampton, MA, USA). Then α-helical propensities of YL2 and YL2-HyT1 through YL2-HyT6 were calculated as previously reported.

Bridge positions count the residues as written; N and C are the ends. Square brackets hold non-standard residues; d marks the D form. Peptide text beside a SMILES is read from it. N(1-adamantyl)Gly = O=C(O)CNC12CC3CC(CC(C3)C1)C2; Cha = N[C@@H](CC1CCCCC1)C(=O)O; S5 = C=CCCC[C@](C)(N)C(=O)O; PEG3 = NCCOCCOCCOCCC(=O)O

As usually defined, the Ki is a dissociation constant, usually derived from enzyme kinetics or from competition with a known ligand. Lower therefore signals a stronger hold on the target. For `CC(C)C[C@H](NC(=O)CCOCCOCCOCCNC(=O)CNC12CC3CC(CC(C3)C1)C2)C(=O)N[C@@H](CC(C)C)C(=O)N1CCC[C@H]1C(=O)N1CCC[C@H]1C(=O)N[C@H](C(=O)N[C@@H](CCC(=O)O)C(=O)N[C@@H](CCC(N)=O)C(=O)N[C@@H](CC(=O)O)C(=O)N[C@@H](CC(C)C)C(=O)N[C@@]1(C)CCC/C=C\CCC[C@@](C)(C(=O)N[C@@H](Cc2ccc(O)cc2)C(N)=O)NC(=O)[C@H](CC2CCCCC2)NC(=O)[C@H](CC(C)C)NC(=O)[C@H](CCCCN)NC1=O)[C@@H](C)O` [YL2-HyT6] (H-[N(1-adamantyl)Gly][PEG3]LLPPTEQDL[S5]KL[Cha][S5]Y-NH2; staple (Z) 12-16; C-terminus assumed), the “Serum stability (remaining compound)” value in series [1] was “improved stability relative to the peptide-based PROTAC (ND1-YL2)”. This compound also showed a Ki in series [2] of 237 nM. Further, the Cell invasion entry in series [3] is recorded as “remarkably decreased the invasion”. For the same compound, the Cell viability result in series [4] and in series [5] was “little effect on cell viability” in each case. Besides, the “Helicity (%)” value in series [6] is reported as 32.6%.
